Data set [1] concerns the target Histone-lysine N-methyltransferase, H3 lysine-79 specific (Homo sapiens, UniProt Q8TEK3). The data set can be described thus: Inhibition of human DOT1L expressed in Escherichia coli assessed as reduction in methylated polynucleosome level using polynucleosome as substrate in presence of [3H] SAM incubated for 15 mins by scintillation counting.
Data set [2] addresses INMT (indolethylamine N-methyltransferase) (Homo sapiens, UniProt O95050). The data set can be described thus: Inhibition of wild type human INMT expressed in Escherichia coli at 1 uM using tryptamine as substrate in presence of SAM incubated for 30 mins by MTase-Glo assay relative to control. The following applies: probe tryptamine.
In data set [3] the target is Histone-lysine N-methyltransferase SETDB1 (Homo sapiens, UniProt Q15047). As to the kind of experiment: Inhibition of human SETDB1 expressed in sf9 insect cells assessed as reduction in methylated histone H3 full length level using histone H3 full length as substrate in presence of [3H] SAM incubated for 30 mins by scintillation counting.
For data set [4], the target named is HNMT (histamine N-methyltransferase) (Homo sapiens, UniProt P50135). The data set can be described thus: Inhibition of human HNMT expressed in Escherichia coli at 1 uM assessed as reduction in SAH level using histamine as substrate in presence of SAM incubated for 15 mins by LC-MS/MS analysis relative to control. The following applies: recombinant human HNMT expressed in Escherichia coli, probe histamine.
HNMT (histamine N-methyltransferase), sequence (P50135 whole entry): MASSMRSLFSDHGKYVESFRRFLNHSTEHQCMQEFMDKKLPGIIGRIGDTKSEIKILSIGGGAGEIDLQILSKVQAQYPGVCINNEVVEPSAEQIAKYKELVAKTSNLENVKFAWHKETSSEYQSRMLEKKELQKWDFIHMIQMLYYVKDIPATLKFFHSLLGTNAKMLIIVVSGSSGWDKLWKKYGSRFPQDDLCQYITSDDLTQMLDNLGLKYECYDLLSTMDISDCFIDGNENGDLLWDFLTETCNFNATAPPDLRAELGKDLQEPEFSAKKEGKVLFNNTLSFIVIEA

The target in data set [5] is Indolethylamine N-methyltransferase (Homo sapiens, UniProt O95050). As to the kind of experiment: Inhibition of wild type human INMT expressed in Escherichia coli using tryptamine as substrate in presence of SAM incubated for 30 mins by MTase-Glo assay.
Indolethylamine N-methyltransferase, sequence (O95050 whole entry): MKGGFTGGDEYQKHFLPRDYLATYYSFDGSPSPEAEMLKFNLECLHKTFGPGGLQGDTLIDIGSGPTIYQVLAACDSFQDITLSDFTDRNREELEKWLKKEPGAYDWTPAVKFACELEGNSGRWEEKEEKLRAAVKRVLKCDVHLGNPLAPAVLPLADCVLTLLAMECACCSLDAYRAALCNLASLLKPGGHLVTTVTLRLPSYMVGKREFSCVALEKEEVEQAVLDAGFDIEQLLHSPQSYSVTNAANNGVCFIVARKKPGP
The target of data set [6] is DNA (cytosine-5)-methyltransferase 3A (Homo sapiens, UniProt Q9Y6K1). The data set can be described thus: Inhibition of human DNMT3a expressed in insect sf9 cells assessed as reduction in methylated poly(dI-dC)-Poly(dI-dC) level using poly(dI-dC)-poly(dI-dC) as substrate in presence of [3H] SAM incubated for 10 mins by scintillation counting.
DNA (cytosine-5)-methyltransferase 3A, sequence (Q9Y6K1 whole entry, looked up): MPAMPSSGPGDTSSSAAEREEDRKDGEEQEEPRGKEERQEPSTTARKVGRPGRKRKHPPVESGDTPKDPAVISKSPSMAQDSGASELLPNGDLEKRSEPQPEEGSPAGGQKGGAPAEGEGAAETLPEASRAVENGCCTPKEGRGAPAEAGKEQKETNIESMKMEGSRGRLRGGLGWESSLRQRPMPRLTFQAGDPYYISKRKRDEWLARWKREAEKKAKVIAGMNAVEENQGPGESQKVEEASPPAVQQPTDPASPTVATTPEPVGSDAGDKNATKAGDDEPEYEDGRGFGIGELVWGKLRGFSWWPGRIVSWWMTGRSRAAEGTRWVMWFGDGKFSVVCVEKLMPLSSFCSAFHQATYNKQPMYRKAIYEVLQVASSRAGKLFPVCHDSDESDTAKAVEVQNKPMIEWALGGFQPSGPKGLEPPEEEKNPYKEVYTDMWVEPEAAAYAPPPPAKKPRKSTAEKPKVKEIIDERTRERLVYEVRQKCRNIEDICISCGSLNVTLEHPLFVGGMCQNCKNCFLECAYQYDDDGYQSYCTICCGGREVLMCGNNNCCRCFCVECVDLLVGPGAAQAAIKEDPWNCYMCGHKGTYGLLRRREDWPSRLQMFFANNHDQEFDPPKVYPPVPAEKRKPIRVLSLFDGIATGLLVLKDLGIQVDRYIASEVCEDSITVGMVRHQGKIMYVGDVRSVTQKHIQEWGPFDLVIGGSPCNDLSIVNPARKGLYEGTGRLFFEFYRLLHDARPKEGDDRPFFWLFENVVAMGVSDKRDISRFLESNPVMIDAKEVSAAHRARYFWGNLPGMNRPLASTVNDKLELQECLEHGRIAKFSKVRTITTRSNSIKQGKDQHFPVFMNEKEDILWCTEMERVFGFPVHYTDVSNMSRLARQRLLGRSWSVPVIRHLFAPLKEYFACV
In data set [7] the target is T1, TPMT (thiopurine S-methyltransferase) (Homo sapiens, UniProt P51580).
T1 sequence (P51580 whole entry): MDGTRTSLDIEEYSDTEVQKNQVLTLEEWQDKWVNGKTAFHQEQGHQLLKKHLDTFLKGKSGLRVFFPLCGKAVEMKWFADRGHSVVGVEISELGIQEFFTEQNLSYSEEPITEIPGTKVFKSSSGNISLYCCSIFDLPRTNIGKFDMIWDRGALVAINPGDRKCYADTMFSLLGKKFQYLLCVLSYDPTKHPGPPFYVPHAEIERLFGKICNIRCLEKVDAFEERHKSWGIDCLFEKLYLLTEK
The data set can be described thus: Inhibition of human TPMT expressed in Escherichia coli assessed as reduction in SAH level at 1 uM using 6-mercaptopurine as substrate in presence of SAM incubated for 30 mins by LC-MS/MS analysis relative to control. The following applies: recombinant human TPMT expressed in Escherichia coli, probe 6-mercaptopurine.

The test system of data set [8] is U2OS. The data set can be described thus: Cytotoxicity against human U2OS cells at 100 uM after 48 hrs by CellTiter-Glo luminescent cell viability. The class given is cell-based. (Cellular ATP, detected with luciferase, serves as a proxy for viable cell number.)
Data set [9] concerns the target T2, COMT (catechol O-methyltransferase) (Homo sapiens, UniProt P21964).
T2 sequence (P21964 whole entry): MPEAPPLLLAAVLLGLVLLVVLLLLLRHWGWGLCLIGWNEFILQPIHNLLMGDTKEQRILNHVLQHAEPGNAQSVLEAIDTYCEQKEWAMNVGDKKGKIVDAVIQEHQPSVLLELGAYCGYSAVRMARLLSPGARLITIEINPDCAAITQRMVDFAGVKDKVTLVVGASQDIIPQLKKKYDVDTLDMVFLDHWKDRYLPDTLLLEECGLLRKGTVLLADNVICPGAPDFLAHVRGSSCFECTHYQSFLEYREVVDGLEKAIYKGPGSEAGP
As to the kind of experiment: Inhibition of human COMT expressed in Escherichia coli at 10 uM assessed as reduction in SAH level using pyrocatechol as substrate in presence of SAM incubated for 15 mins by LC-MS/MS analysis relative to control. The following applies: recombinant human COMT expressed in Escherichia coli, probe pyrocatechol.

Data set [10] deals with GAMT (guanidinoacetate N-methyltransferase) (Homo sapiens, UniProt Q14353). As to the kind of experiment: Inhibition of human GAMT expressed in Escherichia coli at 10 uM assessed as reduction in SAH level using guanidineacetic acid as substrate in presence of SAM incubated for 30 mins by LC-MS/MS analysis relative to control. The following applies: recombinant human GAMT expressed in Escherichia coli, probe guanidineacetic acid.

Data set [11] concerns the target T3, GNMT (glycine N-methyltransferase) (Homo sapiens, UniProt Q14749).
T3 sequence (Q14749 whole entry): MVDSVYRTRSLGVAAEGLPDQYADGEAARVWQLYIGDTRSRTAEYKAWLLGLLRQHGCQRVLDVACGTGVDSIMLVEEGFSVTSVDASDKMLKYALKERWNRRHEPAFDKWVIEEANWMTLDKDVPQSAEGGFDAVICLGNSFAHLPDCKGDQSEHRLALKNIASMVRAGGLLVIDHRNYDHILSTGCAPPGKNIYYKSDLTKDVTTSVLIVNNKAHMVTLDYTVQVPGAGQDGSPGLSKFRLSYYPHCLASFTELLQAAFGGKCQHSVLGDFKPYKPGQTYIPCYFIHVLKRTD
As to the kind of experiment: Inhibition of human GNMT expressed in Escherichia coli at 10 uM assessed as reduction in SAH level using glycine as substrate in presence of SAM incubated for 30 mins by LC-MS/MS analysis relative to control. The following applies: recombinant human GNMT expressed in Escherichia coli, probe glycine.

Data set [12] is described as follows: Permeability across apical to basolateral side in human Caco2 cells after 60 mins by HPLC-MS/MS analysis. The following applies: caco-2, 1 h. The class given is ADME, cell-based.
Data set [13] deals with T4, Nicotinamide N-methyltransferase (Homo sapiens, UniProt P40261).
T4 sequence (P40261 whole entry): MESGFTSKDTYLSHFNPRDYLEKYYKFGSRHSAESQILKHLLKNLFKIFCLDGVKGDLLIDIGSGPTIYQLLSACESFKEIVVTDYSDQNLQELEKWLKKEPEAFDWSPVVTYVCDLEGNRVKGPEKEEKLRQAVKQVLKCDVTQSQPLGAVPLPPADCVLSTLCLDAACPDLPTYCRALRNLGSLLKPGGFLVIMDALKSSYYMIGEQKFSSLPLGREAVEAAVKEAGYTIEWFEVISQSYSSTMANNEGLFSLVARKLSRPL
The data set can be described thus: Inhibition of N-terminal His6-tagged wild type human NNMT expressed in Escherichia coli NiCo21(DE3) assessed as reduction in 1-methylquinolinium level using quinoline as substrate in presence of SAM and measured every 27 seconds for 5.5 mins by fluorescence-based assay.

In data set [14] the target is T5, Thiopurine S-methyltransferase (Homo sapiens, UniProt P51580).
T5 sequence (P51580 whole entry): T1 sequence (P51580 whole entry)
As to the kind of experiment: Inhibition of human TPMT expressed in Escherichia coli assessed as reduction in SAH level using 6-mercaptopurine as substrate in presence of SAM incubated for 30 mins by LC-MS/MS analysis.

pIC50, pKi: −log10 of the molar value.

Histone-lysine N-methyltransferase, H3 lysine-79 specific, sequence (Q8TEK3 whole entry): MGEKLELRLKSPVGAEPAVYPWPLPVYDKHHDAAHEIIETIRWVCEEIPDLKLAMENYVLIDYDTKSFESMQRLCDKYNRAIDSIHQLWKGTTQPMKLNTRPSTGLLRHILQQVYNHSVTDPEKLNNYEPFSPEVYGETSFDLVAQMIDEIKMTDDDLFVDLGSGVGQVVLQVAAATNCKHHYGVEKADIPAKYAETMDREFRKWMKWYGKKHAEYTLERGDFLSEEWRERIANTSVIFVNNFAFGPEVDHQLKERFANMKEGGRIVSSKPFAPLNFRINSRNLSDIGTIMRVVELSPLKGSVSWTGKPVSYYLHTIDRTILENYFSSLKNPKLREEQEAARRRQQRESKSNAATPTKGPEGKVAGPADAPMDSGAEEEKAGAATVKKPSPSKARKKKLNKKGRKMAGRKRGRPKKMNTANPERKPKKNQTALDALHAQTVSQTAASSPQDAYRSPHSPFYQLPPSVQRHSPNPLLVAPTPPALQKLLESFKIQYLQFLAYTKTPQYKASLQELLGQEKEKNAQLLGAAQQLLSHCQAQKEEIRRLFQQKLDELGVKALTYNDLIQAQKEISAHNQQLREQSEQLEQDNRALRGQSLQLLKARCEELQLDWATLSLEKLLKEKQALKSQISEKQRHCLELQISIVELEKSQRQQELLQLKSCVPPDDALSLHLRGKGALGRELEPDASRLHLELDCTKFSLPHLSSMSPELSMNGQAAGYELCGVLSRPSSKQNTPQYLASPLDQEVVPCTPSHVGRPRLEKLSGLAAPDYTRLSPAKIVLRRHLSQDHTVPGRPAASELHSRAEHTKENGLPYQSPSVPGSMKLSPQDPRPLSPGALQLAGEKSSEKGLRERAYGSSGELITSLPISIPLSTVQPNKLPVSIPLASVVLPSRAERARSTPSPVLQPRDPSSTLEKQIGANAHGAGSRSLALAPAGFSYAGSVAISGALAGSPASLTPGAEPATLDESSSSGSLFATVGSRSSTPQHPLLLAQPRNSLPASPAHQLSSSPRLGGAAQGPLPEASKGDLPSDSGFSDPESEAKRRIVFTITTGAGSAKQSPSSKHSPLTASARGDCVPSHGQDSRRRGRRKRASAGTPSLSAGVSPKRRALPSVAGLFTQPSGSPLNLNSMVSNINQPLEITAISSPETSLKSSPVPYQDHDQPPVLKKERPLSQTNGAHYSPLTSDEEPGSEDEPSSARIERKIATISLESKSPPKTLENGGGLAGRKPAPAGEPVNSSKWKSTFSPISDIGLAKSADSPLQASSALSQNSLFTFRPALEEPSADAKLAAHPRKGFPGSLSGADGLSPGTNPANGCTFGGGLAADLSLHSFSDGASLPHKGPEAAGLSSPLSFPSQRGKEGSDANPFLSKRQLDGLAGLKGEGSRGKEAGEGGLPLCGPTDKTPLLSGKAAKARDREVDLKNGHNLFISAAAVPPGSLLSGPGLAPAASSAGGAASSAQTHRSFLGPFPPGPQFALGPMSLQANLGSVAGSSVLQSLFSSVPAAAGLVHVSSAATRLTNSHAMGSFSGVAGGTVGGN
INMT (indolethylamine N-methyltransferase), sequence (O95050 whole entry): as the sequence (O95050 whole entry) above

For `NC(=O)c1cccc(C#C[C@@H](CC[C@H](N)C(=O)O)C[C@H]2O[C@@H](n3cnc4c(N)ncnc43)[C@H](O)[C@@H]2O)c1`, the negative logarithm of the IC50 (pIC50) (usually −log10 of the IC50, conventionally taken in molar units) in data set [1] is less than 5.00; in data set [3], less than 5.00; in data set [5], 5.47; in data set [6] it was 5.12; in data set [14] it was 6.00. The inhibition – broadly, the drop in the measured response relative to a control, in per cent – at 0.5 h, 1 µM in data set [2] came out at 14%; in [7], 51%. In addition, the inhibition at 0.25 h, 1 µM in data set [4] was 6%. The Activity result in data set [8] is given as “Non-Toxic”. In addition, the inhibition at 0.25 h, 10 µM in data set [9] is 43%. Moreover, the inhibition at 0.5 h, 10 µM in [10] was found to be 26%; in [11] it was 23%. Further, the permeability entry in data set [12] is “Impermeable”. Further, the pKi (commonly the Ki on a negative log10 scale, so that one unit is a factor of ten) in data set [13] (read-out: Ki) was 9.30. In addition, the Ki in data set [13] (read-out: pKi (converted)) was 0.501 nM.

For the origin of these results see ChEMBL document CHEMBL4414609, “High-Affinity Alkynyl Bisubstrate Inhibitors of Nicotinamide N-Methyltransferase (NNMT)” (J Med Chem, 2019).
